Assay results published in patent publication US9249102B2 (priority 2012, dated 2016).
Read-outs that look alike come from different tables or passages of the source.

Tests used:
Cooperia oncophora = assay: Method C: Cooperia oncophora L1 larvae in vitro; conditions: 96 h, read-out: inhibition of motility
Haemonchus contortus = assay: Method A: Haemonchus contortus L1 larvae, microtitre plate screen; conditions: 96 h, read-out: motility inhibition
[1] = test system: microfilaria of Dirofilaria immitis; assay: Method F: microfilaria of Dirofilaria immitis, survival at 24 hours
[2] = survival of microfilaria at 24 hours

SMILES | inhibition at 5 µg/mL (Cooperia oncophora) [%] | inhibition at 5 µg/mL (Haemonchus contortus) [%] | EC50 [1, 2] [µg/mL] | EC50 [1] [µg/mL]
O=C(CO[C@H]1CC[C@H](Nc2ccc(S(=O)(=O)C(F)(F)F)cc2)CC1)N1CCN(Cc2nc3cc(C(F)(F)F)ccc3s2)CC1 [Compound 344, 1-[4-[[5-(trifluoromethyl)-1,3-benzothiazol-2-yl]methyl]piperazin-1-yl]-2-[4-[4-(trifluoromethylsulfonyl)anilino]cyclohexoxy]ethanone] | ≥ 90 | ≥ 90 | – | –
CC(c1nc2cc(C(F)(F)F)ccc2s1)N1CCN(C(=O)CO[C@H]2CC[C@H](Nc3ccc([N+](=O)[O-])c(C(F)(F)F)c3)CC2)CC1 (some centres unmarked) [Compound 343, 2-[4-(4-nitro-3-trifluoromethyl-phenylamino)-cyclohexyloxy]-1-{4-[1-(5-trifluoromethyl-benzothiazol-2-yl)-ethyl]-piperazin-1-yl}-ethanone] | ≥ 90 | ≥ 90 | – | –
CN(c1ccc(C#N)c(C(F)(F)F)c1)[C@H]1CC[C@H](OCC(=O)N2CCN(c3ccc4cc(Cl)ccc4n3)CC2)CC1 [Compound 282, 2-[(4-[methyl[4-cyano-3-(trifluoromethyl)phenyl]amino]cyclohexyl)-oxy]1-[4-(6-chloroquinolin-2-yl)-piperazin-1-yl]ethan-1-one] | ≥ 90 | ≥ 90 | – | –
O=C(CO[C@H]1CC[C@H](Nc2ccc([N+](=O)[O-])c(C(F)(F)F)c2)CC1)N1CCN(c2ccc3cc(F)ccc3c2)CC1 [Compound 17, 1-[4-(6-fluoronaphthalen-2-yl)piperazin-1-yl]-2-[(4-[[4-nitro-3-(trifluoromethyl)phenyl]amino]cyclohexyl)oxy]ethan-1-one] | – | ≥ 90 | < 1 | –
N#Cc1ccc(NC2CCN(C(=O)CCCN3CCN(c4ccc5cc(F)ccc5n4)CC3)CC2)cc1C(F)(F)F [Compound 103, 4-[(1-[4-[4-(6-fluoroquinolin-2-yl)piperazin-1-yl]butanoyl]piperidin-4-yl)amino]-2-(trifluoromethyl)benzonitrile] | – | ≥ 90 | < 5 | –
CN(c1ccc([N+](=O)[O-])c(C(F)(F)F)c1)[C@H]1CC[C@H](OCC(=O)N2CCN(c3ccc4cc(F)ccc4n3)CC2)CC1 [Compound 247, 1-(4-(6-fluoroquinolin-2-yl)piperazin-1-yl)-2-(4-(methyl(4-nitro-3-(trifluoromethyl)phenyl)amino)cyclohexyloxy)ethanone] | – | ≥ 90 | < 1 | –
O=C(COc1ccc(Nc2ccc([N+](=O)[O-])c(C(F)(F)F)c2)cc1)N1CCN(CC2Cc3cc(F)ccc3O2)CC1 (centres unmarked) [Compound 185, 1-[4-[(5-fluoro-2,3-dihydro-1-benzofuran-2-yl)methyl]piperazin-1-yl]-2-(4-[[4-nitro-3-(trifluoromethyl)phenyl]amino]phenoxy)ethan-1-one] | – | ≥ 90 | < 0.1 | –
N#Cc1ccc(NC2CCN(C(=O)CCCN3CCN(c4ccc5cc(F)ccc5c4)CC3)CC2)cc1C(F)(F)F [Compound 18, 4-[(1-[4-[4-(6-fluoronaphthalen-2-yl)piperazin-1-yl]butanoyl]-piperidin-4-yl)amino]-2-(trifluoromethyl)benzonitrile] | – | ≥ 90 | < 1 | –
CC(CN1CCN(c2ccc3cc(C(F)(F)F)ccc3n2)CC1)C(=O)N1CCC(Nc2ccc([N+](=O)[O-])c(C(F)(F)F)c2)CC1 (centres unmarked) [Compound 92, 2-methyl-1-(4-(4-nitro-3-(trifluoromethyl)phenylamino)piperidin-1-yl)-3-(4-(6-(trifluoromethyl)quinolin-2-yl)piperazin-1-yl)propan-1-one] | – | ≥ 90 | < 1 | –
CC(O[C@H]1CC[C@H](Nc2ccc([N+](=O)[O-])c(C(F)(F)F)c2)CC1)C(=O)N1CCN(c2ccc3cc(C(F)(F)F)ccc3n2)CC1 (some centres unmarked) [Compound 249, 2-[[-4-[[4-nitro-3-(trifluoromethyl)phenyl]amino]cyclohexyl]oxy]-1-[4-[6-(trifluoromethyl)quinolin-2-yl]piperazin-1-yl]propan-1-one] | – | ≥ 90 | – | < 1
O=C(COc1ccc(Nc2ccc([N+](=O)[O-])c(C(F)(F)F)c2)cc1)N1CCN(C(=O)c2cc3cc(Cl)ccc3o2)CC1 [Compound 189, 1-[4-[(5-chloro-1-benzofuran-2-yl)carbonyl]piperazin-1-yl]-2-(4-[[4-nitro-3-(trifluoromethyl)phenyl]amino]phenoxy)ethan-1-one] | – | ≥ 90 | < 5 | –
O=C(NCCO[C@H]1CC[C@H](Nc2ccc([N+](=O)[O-])c(C(F)(F)F)c2)CC1)C(=O)NCC1Cc2cc(C(F)(F)F)ccc2O1 (some centres unmarked) [Compound 219, N^1-[2-[(4-[[4-nitro-3-(trifluoromethyl)phenyl]amino]cyclohexyl)oxy]ethyl]-N^2-[[5-(trifluoromethyl)-2,3-dihydro-1-benzofuran-2-yl]methyl]ethanediamide] | – | ≥ 90 | < 1 | –
N#Cc1ccc(N[C@H]2CC[C@H](OCC(=O)N3CCN(CC4Cc5cc(F)ccc5O4)CC3)CC2)cc1C(F)(F)F (some centres unmarked) [Compound 83] | – | ≥ 90 | < 5 | –
C[C@@H]1CN(CC2Cc3cc(F)ccc3O2)[C@@H](C)CN1C(=O)CO[C@H]1CC[C@H](Nc2ccc(C#N)c(C(F)(F)F)c2)CC1 (stereo partly drawn) [Compound 308, 4-(4-{2-[(2R,5S)-4-(5-fluoro-2,3-dihydro-benzofuran-2-ylmethyl)-2,5-dimethyl-piperazin-1-yl]-2-oxo-ethoxy}-cyclohexylamino)-2-trifluoromethyl-benzonitrile] | – | ≥ 90 | – | < 0.1
CN(c1ccc([N+](=O)[O-])c(C(F)(F)F)c1)[C@H]1CC[C@H](OCC(=O)N2CCN(Cc3oc4ccc(C(F)(F)F)cc4c3Cl)CC2)CC1 [Compound 258, 1-(4-[[3-chloro-5-(trifluoromethyl)-1-benzofuran-2-yl]methyl]piperazin-1-yl)-2-[[4-[methyl[4-nitro-3-(trifluoromethyl)phenyl]amino]cyclohexyl]oxy]ethan-1-one] | – | ≥ 90 | < 1 | –
O=C(NCCO[C@H]1CC[C@H](Nc2ccc([N+](=O)[O-])c(C(F)(F)F)c2)CC1)C(=O)NCc1cc2cc(C(F)(F)F)ccc2o1 [Compound 223, N^1-(2-(4-(4-nitro-3-(trifluoromethyl)phenylamino)cyclohexyloxy)ethyl)-N^2-((5-(trifluoromethyl)benzofuran-2-yl)methyl)oxalamide] | – | ≥ 90 | – | < 0.1
N#Cc1ccc(N[C@H]2CC[C@H](OCC(=O)N3CCN(c4ccc5cc(F)ccc5c4)CC3)CC2)cc1C(F)(F)F [Compound 279, 4-(4-{2-[4-(6-fluoro-naphthalen-2-yl)-piperazin-1-yl]-2-oxo-ethoxy}-cyclohexylamino)-2-trifluoromethyl-benzonitrile] | – | ≥ 90 | < 5 | –
O=C(NCCOc1ccc(Nc2ccc([N+](=O)[O-])c(C(F)(F)F)c2)cc1)C(=O)NCC1Cc2cc(C(F)(F)F)ccc2O1 (centres unmarked) [Compound 227, N^1-(2-(4-(4-nitro-3-(trifluoromethyl)phenylamino)phenoxy)ethyl)-N^2-((5-(trifluoromethyl)-2,3-dihydrobenzofuran-2-yl)methyl)ethanediamide] | – | ≥ 90 | < 1 | –
CN(c1ccc([N+](=O)[O-])c(C(F)(F)F)c1)[C@H]1CC[C@H](OCC(=O)N2CCN(c3ccc4cc(F)ccc4c3)CC2)CC1 [Compound 248, 1-(4-(6-fluoronaphthalen-2-yl)piperazin-1-yl)-2-(4-(methyl(4-nitro-3-(trifluoromethyl)phenyl)amino)cyclohexyloxy)ethanone] | – | ≥ 90 | – | < 0.1
N#Cc1ccc(N[C@H]2CC[C@H](OCC(=O)N3CCN(C(=O)C4Cc5cc(C(F)(F)F)ccc5O4)CC3)CC2)cc1C(F)(F)F (some centres unmarked) [Compound 87, 2-[4-(4-cyano-3-trifluoromethyl-phenylamino)-cyclohexyloxy]-1-[4-(5-trifluoromethyl-2,3-dihydro-benzofuran-2-carbonyl)-piperazin-1-yl]-ethanone] | – | ≥ 90 | < 5 | –
O=C(COc1ccc(Nc2ccc([N+](=O)[O-])c(C(F)(F)F)c2)cc1)N1CCN(Cc2cc3cc(C(F)(F)F)ccc3o2)CC1 [Compound 188, 2-(4-[[4-nitro-3-(trifluoromethyl)phenyl]amino]phenoxy)-1-(4-[[5-(trifluoromethyl)-1-benzofuran-2-yl]methyl]piperazin-1-yl)ethan-1-one] | – | ≥ 90 | < 5 | –
O=C(CO[C@H]1CC[C@H](Nc2ccc([N+](=O)[O-])c(C(F)(F)F)c2)CC1)N1CCN(c2cc3cc(F)ccc3s2)CC1 [Compound 236, 1-(4-(5-fluorobenzo[b]thiophen-2-yl)piperazin-1-yl)-2-((4-((4-nitro-3-(trifluoromethyl)phenyl)amino)cyclohexyl)oxy)ethanone] | – | ≥ 90 | < 1 | –
Cc1cc(N2CCN(C(=O)CO[C@H]3CC[C@H](Nc4ccc([N+](=O)[O-])c(C(F)(F)F)c4)CC3)CC2)nc2ccccc12 [Compound 98, 1-[4-(4-methylquinolin-2-yl)piperazin-1-yl]-2-[(4-[[4-nitro-3-(trifluoromethyl)phenyl]amino]cyclohexyl)oxy]ethan-1-one] | – | ≥ 90 | < 5 | –
CC(O[C@H]1CC[C@H](Nc2ccc([N+](=O)[O-])c(C(F)(F)F)c2)CC1)C(=O)N1CCN(c2ccc3cc(Cl)ccc3n2)CC1 (some centres unmarked) [Compound 250, 1-[4-(6-chloroquinolin-2-yl)piperazin-1-yl]-2-[[4-[[4-nitro-3-(trifluoromethyl)phenyl]amino]cyclohexyl]oxy]propan-1-one] | – | ≥ 90 | < 1 | –
CC(CN1CCN(c2ccc3ccccc3c2)CC1)C(=O)N1CCC(Nc2ccc([N+](=O)[O-])c(C(F)(F)F)c2)CC1 (centres unmarked) [Compound 13, 2-methyl-3-[4-(naphthalen-2-yl)piperazin-1-yl]-1-(4-[[4-nitro-3-(trifluoromethyl)phenyl]amino]piperidin-1-yl)propan-1-one] | – | ≥ 90 | < 1 | –
